Results on 19 molecules are retold here after PubChem BioAssay AID248 (DTP/NCI, 2004).

Several values for one entry are separate records, joined by “and”; a condition that tells them apart may be missing. Equal values may be shown once. Toxic doses and inconclusive results are not listed.

The experiment deals with L1210 leukemia ip in BDF1 mice, survival T/C. Briefly: NCI In Vivo Anticancer Drug Screen. Data for tumor model L1210 Leukemia (intraperitoneal) in B6D2F1 (BDF1) mice. The note with it: endpoint: mean survival time, higher = longer survival. The procedure, abridged:
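Survival endpoint. Drug-treated group vs vehicle group, expressed as T divided by C. Tumor passaged by transplantation.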

Where [1] appears, read: dose: 100.0 mg/kg/injection, schedule: Q04DX003 (ip), vehicle: other.
Setting [2] is: dose: 100.0 mg/kg/injection, schedule: Q01DX009 (ip), vehicle: saline with Tween-80.
Setting [3] is: dose: 100.0 mg/kg/injection, schedule: Q04DX003 (ip), vehicle: saline with Tween-80.
Setting [4] is: dose: 200.0 mg/kg/injection, schedule: Q01DX009 (ip), vehicle: saline with Tween-80.
[5] abbreviates: dose: 400.0 mg/kg/injection, schedule: Q04DX003 (ip), vehicle: saline with Tween-80.
The mark [6] stands for this setting: dose: 100.0 mg/kg/injection, schedule: Q01DX001 (ip), vehicle: saline.
Where [7] appears, read: dose: 200.0 mg/kg/injection, schedule: Q01DX001 (ip), vehicle: saline.
Where [8] appears, read: dose: 400.0 mg/kg/injection, schedule: Q01DX001 (ip), vehicle: saline.
[9] abbreviates: dose: 100.0 mg/kg/injection, schedule: Q04DX002 (ip), vehicle: Klucel (hydroxypropylcellulose) (HPC).
The mark [10] stands for this setting: dose: 200.0 mg/kg/injection, schedule: Q04DX002 (ip), vehicle: Klucel (hydroxypropylcellulose) (HPC).
Where [11] appears, read: dose: 400.0 mg/kg/injection, schedule: Q04DX002 (ip), vehicle: Klucel (hydroxypropylcellulose) (HPC).

Regarding `O=C(OC(=O)c1ccncc1)c1ccncc1`, the T/C is 94 % of control (dose: 75.0 mg/kg/injection, schedule: Q04DX003 (ip), vehicle: saline); 92 % of control (dose: 150.0 mg/kg/injection, schedule: Q04DX003 (ip), vehicle: saline); 110 % of control (dose: 300.0 mg/kg/injection, schedule: Q04DX003 (ip), vehicle: saline).
On to `Oc1ccc2ccccc2c1-c1nc2ccccc2s1`, for which the T/C is, setting by setting: (dose: 25.0 mg/kg/injection, schedule: Q04DX003 (ip), vehicle: other) 94 % of control and 111 % of control; (dose: 50.0 mg/kg/injection, schedule: Q04DX003 (ip), vehicle: other) 97 % of control and 88 % of control; under setting [1], 91 % of control.
For the molecule `S=C(S)N1CCC(CCCC2CCN(C(=S)S)CC2)CC1`, the T/C is, setting by setting: under setting [2], 88 % of control; under setting [3], 100 % of control; under setting [4], 88 % of control; (dose: 200.0 mg/kg/injection, schedule: Q04DX003 (ip), vehicle: saline with Tween-80) 89 % of control; under setting [5], 105 % of control.
With `O=C(Nc1cc(C(F)(F)F)ccc1Cl)c1ccc(Cl)cc1Cl`, the T/C reads like this: (dose: 100.0 mg/kg/injection, schedule: Q01DX009 (sc), vehicle: olive oil, sesame oil, peanut oil) 104 % of control; (dose: 100.0 mg/kg/injection, schedule: Q04DX003 (sc), vehicle: olive oil, sesame oil, peanut oil) 106 % of control; (dose: 200.0 mg/kg/injection, schedule: Q01DX009 (sc), vehicle: olive oil, sesame oil, peanut oil) 113 % of control; (dose: 200.0 mg/kg/injection, schedule: Q04DX003 (sc), vehicle: olive oil, sesame oil, peanut oil) 101 % of control; (dose: 400.0 mg/kg/injection, schedule: Q01DX009 (sc), vehicle: olive oil, sesame oil, peanut oil) 107 % of control; (dose: 400.0 mg/kg/injection, schedule: Q04DX003 (sc), vehicle: olive oil, sesame oil, peanut oil) 101 % of control.
As for `CCN(CCO)Cc1cccc2ccccc12`, the T/C by setting is: (dose: 25.0 mg/kg/injection, schedule: Q04DX003 (ip), vehicle: saline) 97 % of control; (dose: 50.0 mg/kg/injection, schedule: Q04DX003 (ip), vehicle: saline) 101 % of control; under setting [3], 98 % of control; (dose: 100.0 mg/kg/injection, schedule: Q04DX003 (ip), vehicle: saline) 101 % of control.
As to `O=S(=O)(CC(O)(c1ccccc1)c1ccccc1)CC(O)(c1ccccc1)c1ccccc1`, the T/C by setting is: (dose: 50.0 mg/kg/injection, schedule: Q01DX001 (ip), vehicle: saline) 93 % of control; under setting [6], 91 % of control; under setting [7], 93 % of control; under setting [8], 87 % of control.
Take `Nc1ccc(Cl)cc1N`: the T/C reads like this: (dose: 90.0 mg/kg/injection, schedule: Q01DX001 (ip), vehicle: other) 100 % of control; (dose: 90.0 mg/kg/injection, schedule: Q04DX003 (ip), vehicle: other) 97 % of control; under setting [2], 104 % of control; (dose: 100.0 mg/kg/injection, schedule: Q04DX002 (ip), vehicle: other) 107 % of control; (dose: 175.0 mg/kg/injection, schedule: Q01DX001 (ip), vehicle: other) 105 % of control; (dose: 175.0 mg/kg/injection, schedule: Q01DX009 (ip), vehicle: other) 111 % of control. For the same molecule, the T/C is 100 % of control (dose: 175.0 mg/kg/injection, schedule: Q04DX003 (ip), vehicle: other); 114 % of control under setting [4]; 107 % of control (dose: 200.0 mg/kg/injection, schedule: Q04DX002 (ip), vehicle: other); 99 % of control (dose: 265.0 mg/kg/injection, schedule: Q01DX001 (ip), vehicle: other); 151 % of control (dose: 265.0 mg/kg/injection, schedule: Q01DX009 (ip), vehicle: other); 106 % of control (dose: 265.0 mg/kg/injection, schedule: Q04DX003 (ip), vehicle: other). Further, the T/C (dose: 400.0 mg/kg/injection, schedule: Q01DX001 (ip), vehicle: other) is 110 % of control; the T/C (dose: 400.0 mg/kg/injection, schedule: Q04DX002 (ip), vehicle: other) was 114 % of control; the T/C (dose: 400.0 mg/kg/injection, schedule: Q04DX003 (ip), vehicle: other) is 104 % of control.
Take `CC[As](=O)(O)CCCc1ccccc1`: the T/C was 106 % of control (dose: 12.5 mg/kg/injection, schedule: Q01DX001 (ip), vehicle: Klucel (hydroxypropylcellulose) (HPC)) and 109 % of control (dose: 25.0 mg/kg/injection, schedule: Q01DX001 (ip), vehicle: Klucel (hydroxypropylcellulose) (HPC)).
For `Nc1cc(Nc2cccc(Cl)c2)nc(N)n1`, the T/C (dose: 100.0 mg/kg/injection, schedule: Q01DX001 (ip), vehicle: carboxymethylcellulose (CMC)) was 94 % of control.
Turning to `CN(C)Cc1ccc(NC(=O)c2ccc(C(=O)Nc3ccc(CN(C)C)cc3)cc2)cc1`, the T/C is, setting by setting: (dose: 15.0 mg/kg/injection, schedule: Q01DX Z (ip), vehicle: carboxymethylcellulose (CMC)) 103 % of control; (dose: 30.0 mg/kg/injection, schedule: Q01DX Z (ip), vehicle: carboxymethylcellulose (CMC)) 106 % of control; (dose: 60.0 mg/kg/injection, schedule: Q01DX Z (ip), vehicle: carboxymethylcellulose (CMC)) 106 % of control; (dose: 120.0 mg/kg/injection, schedule: Q01DX Z (ip), vehicle: carboxymethylcellulose (CMC)) 117 % of control.
With `CN(C)c1ccc(N=Nc2nccs2)cc1`, the T/C by setting is: under setting [3], 91 % of control; under setting [5], 88 % of control.
As for `C/C(=N/NC(=O)c1ccccc1)c1ccc(Cl)cc1Cl`, the T/C is, setting by setting: under setting [1], 97 % of control; (dose: 200.0 mg/kg/injection, schedule: Q04DX003 (ip), vehicle: other) 108 % of control.
In the case of `CCN(C(C)C)C(C)C`, the T/C runs as follows: (dose: 25.0 mg/kg/injection, schedule: Q01DX009 (ip), vehicle: saline with Tween-80) 101 % of control; (dose: 50.0 mg/kg/injection, schedule: Q01DX009 (ip), vehicle: saline with Tween-80) 106 % of control; under setting [2], 96 % of control; under setting [3], 93 % of control.
On to `CCCCCCCCCC(CCCCCCCC)SC(C)=O` (configuration not stated), for which the T/C is 108 % of control under setting [9], 103 % of control under setting [10] and 103 % of control under setting [11].
Regarding `O=C1CCCCCCCCCCCCCCO1`, the T/C was 96 % of control under setting [9], 90 % of control under setting [10] and 93 % of control under setting [11].
In the case of `CC1c2cc(C(=O)O)ccc2OC1(C)C` (configuration not stated), the T/C by setting is: under setting [6], 96 % of control; under setting [7], 102 % of control; under setting [8], 91 % of control.
Take `Cc1ccc(/C([O-])=C(\C(=S)Nc2cccc(Cl)c2)[n+]2ccccc2)cc1`: the T/C was 104 % of control (dose: 100.0 mg/kg/injection, schedule: Q01DX009 (ip), vehicle: Klucel (hydroxypropylcellulose) (HPC)); 95 % of control (dose: 200.0 mg/kg/injection, schedule: Q01DX009 (ip), vehicle: Klucel (hydroxypropylcellulose) (HPC)); 108 % of control (dose: 400.0 mg/kg/injection, schedule: Q01DX009 (ip), vehicle: Klucel (hydroxypropylcellulose) (HPC)).
As for `CC(=O)CC(=O)NCCN1CCN(C(=O)CC(C)=O)CC1`, the T/C is 93 % of control under setting [6], 101 % of control under setting [7] and 98 % of control under setting [8].
As to `CC(C)COC(=O)CCCc1ccc(N(CCCl)CCCl)cc1`, the T/C runs as follows: (dose: 100.0 mg/kg/injection, schedule: Q04DX002 (ip), vehicle: saline) 121 % of control; (dose: 200.0 mg/kg/injection, schedule: Q04DX002 (ip), vehicle: saline) 111 % of control.
